Experimental data reported in US20230079045A1 (priority 2019, published 2023).
Read-outs that look alike come from different tables or passages of the source.

What was measured:
[1] = test system: IFVA/Mal/302/54; experiment: cytopathic effect (CPE) antiviral test in MDCK cells, IFVA/Mal/302/54; format: cell-based, influenza virus
[2] = test system: IFVA/Weiss/43; experiment: cytopathic effect (CPE) antiviral test in MDCK cells, IFVA/Weiss/43; format: cell-based, influenza virus
[3] = unidentified influenza virus, MDCK, 120 h, read-out: EC50(IFVA/Mal/302/54), MDCK cells, CPE method, CCK-8 cell viability, 5 days
[4] = unidentified influenza virus, MDCK, 120 h, read-out: EC50(IFVA/Weiss/43), MDCK cells, CPE method, CCK-8 cell viability, 5 days

SMILES	EC50 ([1]; read-out: EC50(IFVA/Mal/302/54), MDCK cells, CPE method, CCK-8 cell viability, 5 days) [µM]	EC50 ([2]; read-out: EC50(IFVA/Weiss/43), MDCK cells, CPE method, CCK-8 cell viability, 5 days) [µM]	EC50 [1, 3] [µM]	EC50 [2, 4] [µM]
CC(=O)Nc1ccc2oc(-c3ccnc(C(=O)N4C[C@H]5C[C@@H]4CN5C(c4ccccc4)c4nnn(C)n4)c3)nc2c1 (stereo partly drawn) [Compound 6b, N-(2-(2-((1R,4R)-5-((2-methyl-2H-tetrazol-5-yl)(phenyl)methyl)-2,5-diazabicyclo[2.2.1]heptane-2-carbonyl)pyridin-4-yl)benzo[d]oxazol-5-yl)acetamide]	> 10	> 10	–	–
CC(=O)Nc1ccc2oc(-c3ccnc(C(=O)N4CCN(C(c5ccccc5)c5nnn(C)n5)C5(CC5)C4)c3)nc2c1 (centres unmarked) [Compound 7, N-(2-(2-(4-((2-methyl-2H-tetrazol-5-yl)(phenyl)methyl)-4,7-diazaspiro[2.5]octane-7-carbonyl)pyridin-4-yl)benzo[d]oxazol-5-yl)acetamide]	–	–	0.841	0.52
CC(=O)Nc1ccc2oc(-c3ccnc(C(=O)N4CC5(CCN(C(c6ccccc6)c6nnn(C)n6)CC5)C4)c3)nc2c1 (centres unmarked) [Compound 8, N-(2-(2-(7-((2-methyl-2H-tetrazol-5-yl)(phenyl)methyl)-2,7-diazaspiro[3.5]nonane-2-carbonyl)pyridin-4-yl)benzo[d]oxazol-5-yl)acetamide]	–	–	> 10	> 10
CC(=O)Nc1ccc2oc(-c3ccnc(C(=O)N4CCN(C(c5nnn(C)n5)c5ccccc5F)CC4)c3)nc2c1 (centres unmarked) [Compound 9, N-(2-(2-(4-((2-fluorophenyl)(2-methyl-2H-tetrazol-5-yl)methyl)piperazine-1-carbonyl)pyridin-4-yl)benzo[d]oxazol-5-yl)acetamide]	–	–	0.214	0.126
CC(=O)Nc1ccc2oc(-c3ccnc(C(=O)N4CC5(C4)CN(C(c4ccccc4)c4nnn(C)n4)C5)c3)nc2c1 (centres unmarked) [Compound 10, N-(2-(2-(6-((2-methyl-2H-tetrazol-5-yl)(phenyl)methyl)-2,6-diazaspiro[3.3]heptane-2-carbonyl)pyridin-4-yl)benzo[d]oxazol-5-yl)acetamide]	–	–	> 10	> 10
CC(=O)Nc1ccc2oc(-c3ccnc(C(=O)N4CCN(C(c5cccc(F)c5)c5nnn(C)n5)CC4)c3)nc2c1 (centres unmarked) [Compound 11, N-(2-(2-(4-((3-fluorophenyl)(2-methyl-2H-tetrazol-5-yl)methyl)piperazine-1-carbonyl)pyridin-4-yl)benzo[d]oxazol-5-yl)acetamide]	–	–	0.26	0.173
CC(=O)Nc1ccc2oc(-c3ccnc(C(=O)N4CCN(C(c5ccc(F)cc5)c5nnn(C)n5)CC4)c3)nc2c1 (centres unmarked) [Compound 12, N-(2-(2-(4-((4-fluorophenyl)(2-methyl-2H-tetrazol-5-yl)methyl)piperazine-1-carbonyl)pyridin-4-yl)benzo[d]oxazol-5-yl)acetamide]	–	–	0.055	0.022
CC(=O)Nc1ccc2oc(-c3ccnc(C(=O)N4CCC5(CC4)CN(C(c4ccccc4)c4nnn(C)n4)C5)c3)nc2c1 (centres unmarked) [Compound 13, N-(2-(2-(2-((2-methyl-2H-tetrazol-5-yl)(phenyl)methyl)-2,7-diazaspiro[3.5]nonane-7-carbonyl)pyridin-4-yl)benzo[d]oxazol-5-yl)acetamide]	–	–	7.83	> 10
CC(=O)Nc1ccc2oc(-c3ccnc(C(=O)N4C[C@@H]5C[C@H]4CN5C(c4ccccc4)c4nnn(C)n4)c3)nc2c1 (stereo partly drawn) [Compound 14, N-(2-(2-((1S,4S)-5-((2-methyl-2H-tetrazol-5-yl)(phenyl)methyl)-2,5-diazabicyclo[2.2.1]heptane-2-carbonyl)pyridin-4-yl)benzo[d]oxazol-5-yl)acetamide]	–	–	1.1	0.383
CC(=O)Nc1ccc2oc(-c3ccc(C#N)c(C(=O)N4CCN(C(c5ccccc5)c5nnn(C)n5)CC4)c3)nc2c1 (centres unmarked) [Compound 15, N-(2-(4-cyano-3-(4-((2-methyl-2H-tetrazol-5-yl)(phenyl)methyl)piperazine-1-carbonyl)phenyl)benzo[d]oxazol-5-yl)acetamide]	–	–	> 10	> 10
